The results in this text go back to PMC9718554, “Discovery of a fragment hit compound targeting D-Ala:D-Ala ligase of bacterial peptidoglycan biosynthesis” (Journal of Enzyme Inhibition and Medicinal Chemistry, 2022).

The target in the assay is T1, E. coli DdlB enzyme (D-alanine:D-alanine ligase) (Escherichia coli, UniProt P07862).
T1 construct: made in house; host or cells: E. coli
In words: biochemical. Conditions: for remaining activity at 2800 µM: tested concentration 2.8 mM; for remaining activity at 2200 µM: tested concentration 2.2 mM; for remaining activity at 2000 µM: tested concentration 2.0 mM; for remaining activity at 2600 µM: tested concentration 2.6 mM; for remaining activity at 2100 µM: tested concentration 2.1 mM; for remaining activity at 1900 µM: tested concentration 1.9 mM; for remaining activity at 1700 µM: tested concentration 1.7 mM; for remaining activity at 2400 µM: tested concentration 2.4 mM; for remaining activity at 2300 µM: tested concentration 2.3 mM; for remaining activity at 3000 µM: tested concentration 3.0 mM; for remaining activity at 2900 µM: tested concentration 2.9 mM; for remaining activity at 2700 µM: tested concentration 2.7 mM.

Setting [1] is: residual activity, read-out: DdlB RA.
Setting [2] is: residual activity of DdlB, fragment library screening, tested concentration 2.5 mM, read-out: DdlB RA.
Setting [3] is: fragment library screening, read-out: DdlB RA.
[4] abbreviates: tested concentration 2.5 mM, read-out: DdlB RA.
[5] abbreviates: residual activity of DdlB, fragment library screening, read-out: DdlB RA.
[6] abbreviates: residual activity, tested concentration 1.8 mM, read-out: DdlB RA.
The mark [7] stands for this setting: tested concentration 1.8 mM, read-out: DdlB RA.

Read-outs that look alike come from different tables or passages of the source.

For `Cc1ccccc1CS(=O)(=O)N(C)C` [Compound Y300-2769], the remaining activity at 2800 µM (read-out: DdlB RA) came to 87%.

`CC1(C)CC(=O)CC(C)(C)N1OC(=O)c1ccccn1` [Compound 8012-5220]: the remaining activity at 2200 µM under setting [1] amounted to 97%.

As to `CC1(CNC(=O)c2ccccc2Cl)CCOCC1` [Compound P970-0504], the remaining activity at 2200 µM under setting [1] turned out to be 94%. For `CC(C)NS(=O)(=O)c1ccc(F)cc1` [Compound Y030-0983], the remaining activity at 2800 µM (read-out: DdlB RA) turned out to be 94%. For `O=C(Cn1cc2c(n1)CCCC2)Nc1ccc(F)cc1` [Compound C881-0402], the remaining activity at 2000 µM under setting [1] is 79%. `O=C(O)Cc1c(Cl)cccc1Cl` [FLD156]: the remaining activity at 2500 µM under setting [2] is 100%.

In the case of `Cc1ccc(C2(O)CC(C)N(C)CC2C)cc1` (stereo not shown) [Compound 8007-1141], the remaining activity at 2600 µM (read-out: DdlB RA) came to 94%.

In the case of `Cc1ccc(N)c(O)c1` [FLD023], the remaining activity at 2500 µM (read-out: DdlB RA) was determined as 100%. Regarding `COc1cnc(N)nc1` [FLD089], the remaining activity at 2500 µM under setting [2] came to 100%. Take `N=C1NC(=O)CS1` [FLD059]: the remaining activity at 2500 µM under setting [2] stood at 99%. In the case of `CCOc1ccc(O)cc1` [FLD099], under setting [2], the remaining activity at 2500 µM is 100%. Regarding `O=C(O)c1cc2nccc(-c3ccccc3)n2n1` [Compound D717-0041], the remaining activity at 2100 µM under setting [1] turned out to be 74%. For `COc1ccccc1Cc1noc([C@H]2CCCN2)n1` [FF20-0278], the remaining activity at 1900 µM (read-out: DdlB RA) turned out to be 87%. Regarding `Cc1cc(-c2ccc(Cl)cc2)nc2cc(C(=O)O)nn12` [Compound D717-0161], the remaining activity at 1700 µM under setting [3] came to 88%. In the case of `NC(=O)N[C@@H](Cc1ccccc1)C(=O)O` [Compound 8011-7026], the remaining activity at 2400 µM (read-out: DdlB RA) amounted to 93%. Turning to `CCOc1ccc(S(N)(=O)=O)cc1C` [Compound Y050-1019], the remaining activity at 2300 µM (read-out: DdlB RA) is 79%. With `O=C(Cc1n[nH]c(-c2cccnc2)n1)NCC1CCCO1` (stereo not shown) [Compound 8019-9738], the remaining activity at 1700 µM under setting [1] was 94%. Consider `Nc1c(Br)cc(Br)cc1C(=O)O` [FLD132], for which the remaining activity at 2500 µM under setting [2] stood at 100%. In the case of `Cc1ccc(O)c(CCc2ccc(O)cc2)n1` [Compound 1733-0143], for the setting “read-out: DdlB RA”, the remaining activity at 2100 µM was 90%. `O=C(C1CC1)N1CC(c2n[nH]c(C3CC3)n2)C2(CCC2)C1` (stereo not shown) [SC70-0192]: the remaining activity at 1700 µM under setting [1] stood at 95%. In the case of `CCc1ccc(S(N)(=O)=O)cc1N` [Compound 8020-2865], the remaining activity at 2500 µM under setting [4] amounted to 97%. Consider `CCc1nc(N2CCOCC2)ncc1C(=O)O` [Compound S272-0074], for which the remaining activity at 2500 µM under setting [4] was 91%. Turning to `CN(CC1CCOC1)C(=O)C1CC1` (stereo not shown) [Compound S213-1842], the remaining activity at 3000 µM under setting [5] was 91%. In the case of `OCCn1cc(Br)cn1` [Compound Y504-8814], where the note is “read-out: DdlB RA”, the remaining activity at 2900 µM was 97%.

Turning to `O=C(O)c1cnn(-c2ccccn2)c1` [Compound 8018-8592], the remaining activity at 2700 µM (read-out: DdlB RA) is 94%. Take `Cc1ccc(S(=O)(=O)NC2CC2)c(C)c1` [Compound Y206-5066]: the remaining activity at 2700 µM (read-out: DdlB RA) is 94%. `O=S(=O)(c1c[nH]c2ncccc12)N1CCc2ccccc21` [Compound P633-0115]: the remaining activity at 1700 µM (read-out: DdlB RA) was found to be 83%. Turning to `Cc1nn(C(C)C(=O)O)cc1Cl` (stereo not shown) [FF01-4477], the remaining activity at 2700 µM under setting [5] worked out at 89%. Take `Nc1ccc(-c2ccc(N)cc2)cc1` [FLD069]: under setting [2], the remaining activity at 2500 µM is 70%. As to `Cc1cc(C)n(CCN2CCOCC2)n1` [FF20-3241], the remaining activity at 1900 µM (read-out: DdlB RA) stood at 86%. As for `O=C(Nc1nnc[nH]1)C1CCC1` [Compound P774-4606], the remaining activity at 3000 µM under setting [5] is 94%.

As to `O=C1NC(C(=O)O)Cn2cccc21` (stereo not shown) [Compound S531-0139], the remaining activity at 2800 µM (read-out: DdlB RA) was determined as 90%.

Take `O=C(Nc1cccc(F)c1)[C@H]1CCCC[C@H]1C(=O)O` [Compound Y203-6612]: the remaining activity at 1900 µM under setting [3] turned out to be 93%. With `CC1CCCN(S(=O)(=O)Cc2ccccc2)C1` (stereo not shown) [Compound Y030-1494], the remaining activity at 2400 µM (read-out: DdlB RA) worked out at 79%.

For the molecule `N#Cc1c2c([nH]c(=O)c1C(=O)O)CCCCCC2` [Compound 8020-6316], the remaining activity at 2000 µM (read-out: DdlB RA) is 91%. As to `Cc1ccc(C#N)c(SCC(=O)O)n1` [Compound 8009-7785], the remaining activity at 2400 µM (read-out: DdlB RA) was found to be 82%. In the case of `O=C(C1CCC1)N1CCC(F)(C(=O)N2CCCC2)CC1` [Compound T502-1244], the remaining activity at 1800 µM under setting [6] is 97%.

As for `O=C(Nc1ccccc1C(=O)O)c1ccccc1Cl` [Compound 0342-0148], the remaining activity at 1800 µM under setting [6] turned out to be 111%.

With `CCOC(=O)c1cn[nH]c1O` [Compound C201-1623], for the setting “read-out: DdlB RA”, the remaining activity at 3200 µM was determined as 101%. As for `OC12CC3CC(C1)CC(NCc1cccnc1)(C3)C2` [Compound 8020-0633], under setting [7], the remaining activity at 1800 µM is 92%.

`CC(C)C(=O)Nc1ccc(Cl)cc1C(=O)O` [Compound 8012-2055]: the remaining activity at 2100 µM under setting [1] worked out at 110%. In the case of `O=C1COc2cc(O)ccc21` [FLD029], the remaining activity at 2500 µM under setting [2] worked out at 100%.

Regarding `COc1cccc(CNC(=O)C2CCCCC(=O)N2C)c1` (stereo not shown) [Compound S513-0092], the remaining activity at 1900 µM under setting [1] was 97%. `CNc1nnc(C(F)(F)F)s1` [FLD140]: under setting [2], the remaining activity at 2500 µM is 94%. On the same count and under the same terms, for `CCOC(=O)c1cccnc1C` [FLD178] the value was 99%. In the case of `Cc1ccc2nc(C)c(CN3CCCCC3C)c(O)c2c1` (stereo not shown) [Compound 4300-0248], the remaining activity at 1800 µM under setting [6] is 87%. With `CCN(C(=O)c1n[nH]cc1Cl)c1ccccc1` [Compound Y501-5069], the remaining activity at 2400 µM (read-out: DdlB RA) stood at 95%. Take `Nc1ncncn1` [FLD084]: under setting [2], the remaining activity at 2500 µM was determined as 98%. Turning to `O=c1[nH]c2ncc(Br)cc2o1` [Compound Y042-2897], the remaining activity at 2300 µM (read-out: DdlB RA) came to 92%.

`CN1CCC2(CC1)CN(C1CCC1)Cc1ccccc1O2` [CM3852-0302]: under setting [1], the remaining activity at 1900 µM came to 86%.

As for `COc1cc(C#N)cc2[nH]c(=O)oc12` [Compound 8020-7090], the remaining activity at 2600 µM (read-out: DdlB RA) worked out at 97%. On to `O=[N+]([O-])c1cc(S(=O)(=O)O)ccc1Cl` [Compound 0195-0016], for which the remaining activity at 2100 µM (read-out: DdlB RA) is 100%. Consider `CC(=O)N1CCC(O)C2CCCCC21` (stereo not shown) [Compound 8014-2178], for which the remaining activity at 2500 µM under setting [4] stood at 99%. In the case of `CC#CC(=O)NCc1cc(F)ccc1F` [Compound T001-0919], the remaining activity at 2900 µM (read-out: DdlB RA) amounted to 89%. With `CCC(CC)C(=O)Nc1ccc(S(N)(=O)=O)cc1` [Compound Y203-8619], the remaining activity at 1800 µM under setting [7] came to 81%. As to `Cc1cc(N)on1` [FLD036], the remaining activity at 2500 µM under setting [2] stood at 97%.

For the molecule `O=C(O)c1cc(CO)on1` [Compound 8018-8667], for the setting “tested concentration 3.5 mM, read-out: DdlB RA”, the remaining activity at 3500 µM stood at 99%.

On to `CNC(=O)c1cc(C)nc2ccc(C(C)C)cc12` [Compound Z601-7136], for which, where the note is “read-out: DdlB RA”, the remaining activity at 2100 µM was determined as 97%.

With `O=C(O)C1CCN(c2nc3cc(Cl)ccc3o2)CC1` [Compound 8019-8559], for the setting “fragment library screening, tested concentration 1.8 mM, read-out: DdlB RA”, the remaining activity at 1800 µM was found to be 93%. As for `Cc1nn(C(F)F)cc1S(=O)(=O)N1CCC(C)CC1` [Compound Y501-4822], under setting [1], the remaining activity at 1900 µM was found to be 97%. In the case of `COC(=O)C(O)(c1cc(C)c(N)c(C)c1)C(F)(F)F` (stereo not shown) [Compound 8015-4257], the remaining activity at 1800 µM (read-out: DdlB RA) was 94%.

`CCc1c(C)[nH]c(=O)c(C(=O)O)c1C(N)=O` [Compound 8020-6319]: under setting [1], the remaining activity at 2200 µM was 72%. As for `Cc1cccc(-c2ccnc3c(C#N)cnn23)c1` [Compound 22, 7-(m-Tolyl)pyrazolo[1,5-a]pyrimidine-3-carbonitrile], the remaining activity at 500 µM (at 0.5 mM, read-out: DdlB inhibition, RA (Residual Activity)) is 100%. In the case of `CC(Oc1ccccc1)C(=O)O` (stereo not shown) [FLD019], under setting [2], the remaining activity at 2500 µM was 99%.
